In patent US20250197406A1, “INDAZOLES AS HEMATOPOIETIC PROGENITOR KINASE 1 (HPK1) INHIBITORS AND METHODS FOR USING SAME” (1ST Biotherapeutics, Inc., priority 2022, published 2025):

biological target: recombinant human HPK1 (Homo sapiens (Human), UniProt Q92918); assay: HPK1 kinase assay (Promega ADP-Glo kinase assay); assay type: biochemical; settings: In vitro activity against HPK1, 5 ng HPK1, MBP substrate, ATP 25 μM, 30° C. 40 minutes
Experimental: HPK1 kinase activity was measured by Promega's ADP-Glo™ kinase assay. In this assay, 5 ng of recombinant human HPK1 (signalchem) is incubated with 5 μL of compounds (0.5% DMSO), 5 μL of MBP (0.5 μg/μl) and 5 μL of ATP (25 μM) in buffer (40 mM Tris, 7.5; 20 mM MgCl2; 0.1 mg/ml BSA; 50 μM DTT.). The assay was started by incubating the reaction mixture in a 96-well plate at 30° C. for 40 minutes. After the incubation, 25 μL ADP-Glo reagent was added and the reaction was incubated at room temperature for 40-min to stop the reaction and degrade residual ATP. The ADP product was then converted to ATP by adding 50 μL per well of detection reagent. Luminescence was detected after 30-min room temperature incubation with the Molecular device I3X plate reader. The IC50 values were calculated from a series of percent inhibition values determined at a range of inhibitor concentration using software routines as implemented in the GraphPad Prism 7 software and SigmaPlot13.0.

recombinant human HPK1, sequence (Q92918 whole entry): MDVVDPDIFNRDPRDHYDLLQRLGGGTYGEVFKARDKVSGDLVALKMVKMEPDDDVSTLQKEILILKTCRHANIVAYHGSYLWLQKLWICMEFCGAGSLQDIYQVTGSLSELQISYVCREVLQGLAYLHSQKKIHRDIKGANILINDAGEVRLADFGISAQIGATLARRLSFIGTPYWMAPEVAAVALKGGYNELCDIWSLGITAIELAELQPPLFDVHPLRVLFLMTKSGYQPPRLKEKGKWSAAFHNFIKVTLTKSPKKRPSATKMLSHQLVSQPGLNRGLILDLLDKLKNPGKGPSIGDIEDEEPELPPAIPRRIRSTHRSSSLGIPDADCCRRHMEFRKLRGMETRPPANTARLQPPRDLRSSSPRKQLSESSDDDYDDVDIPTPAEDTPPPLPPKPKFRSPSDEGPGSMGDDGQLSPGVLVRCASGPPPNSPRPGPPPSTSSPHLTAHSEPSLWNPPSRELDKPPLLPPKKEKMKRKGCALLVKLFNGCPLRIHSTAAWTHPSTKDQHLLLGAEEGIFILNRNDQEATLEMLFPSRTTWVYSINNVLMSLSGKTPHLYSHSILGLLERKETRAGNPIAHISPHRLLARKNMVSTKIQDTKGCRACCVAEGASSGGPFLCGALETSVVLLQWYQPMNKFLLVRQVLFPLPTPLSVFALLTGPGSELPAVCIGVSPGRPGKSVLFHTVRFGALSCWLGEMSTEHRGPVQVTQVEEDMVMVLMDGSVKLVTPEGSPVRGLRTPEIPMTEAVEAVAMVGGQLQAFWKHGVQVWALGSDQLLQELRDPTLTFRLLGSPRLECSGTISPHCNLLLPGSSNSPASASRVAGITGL

Question: For `CC(=O)NC(C)c1c(F)c(C)c(-c2cn3cc(NC(=O)[C@@H]4C[C@@H]4F)nc3cn2)c2cn[nH]c12` (stereo partly drawn) [Example 70, (1S,2S)-N-(6-(7-(1-acetamidoethyl)-6-fluoro-5-methyl-1H-indazol-4-yl)imidazo[1,2-a]pyrazin-2-yl)-2-fluorocyclopropane-1-carboxamide], which IC50 is on record?
Answer: The IC50 was < 100 nM.

Question: For `CSCC(=O)Nc1cn2cc(-c3c(Cl)c(F)c(NC(C)C)c4[nH]ncc34)ncc2n1` [Example 100, N-(6-(5-chloro-6-fluoro-7-(isopropylamino)-1H-indazol-4-yl)imidazo[1,2-a]pyrazin-2-yl)-2-(methylthio)acetamide], which IC50 is on record?
Answer: The IC50 was < 100 nM.

Question: With `Cc1c(F)c(C(C)N2C(=O)c3ccccc3C2=O)c2[nH]ncc2c1-c1cn2cc(NC(=O)[C@@H]3C[C@@H]3F)nc2cn1` (stereo partly drawn) [Example 68, (1S,2S)-N-(6-(7-(1-(1,3-dioxoisoindolin-2-yl)ethyl)-6-fluoro-5-methyl-1H-indazol-4-yl)imidazo[1,2-a]pyrazin-2-yl)-2-fluorocyclopropane-1-carboxamide] as the molecule, how does the IC50 read?
Answer: The IC50 was 101 to 500 nM.

Question: How did the IC50 turn out when `Cc1c(F)c(NC(C)C)c2[nH]ncc2c1-c1cn2cc(NC(=O)[C@H]3C[C@H]3F)nc2cn1` [Example 33] was run?
Answer: Its IC50 is < 100 nM.

Question: How did the IC50 turn out when `Cc1c(F)c(C(C2CC2)N2C(=O)c3ccccc3C2=O)c2[nH]ncc2c1-c1cn2cc(NC(=O)[C@@H]3C[C@@H]3F)nc2cn1` (stereo partly drawn) [Example 21, (1S,2S)-N-(6-(7-(cyclopropyl(1,3-dioxoisoindolin-2-yl)methyl)-6-fluoro-5-methyl-1H-indazol-4-yl)imidazo[1,2-a]pyrazin-2-yl)-2-fluorocyclopropane-1-carboxamid] was run?
Answer: The IC50 was < 100 nM.

Question: Which IC50 does the source give for `CC(C)Nc1c(F)c(CO)c(-c2cn3cc(NC(=O)[C@@H]4C[C@@H]4F)nc3cn2)c2cn[nH]c12` [Example 40, (1S,2S)-2-fluoro-N-(6-(6-fluoro-5-(hydroxymethyl)-7-(isopropylamino)-1H-indazol-4-yl)imidazo[1,2-a]pyrazin-2-yl)cyclopropane-1-carboxamide] here?
Answer: The IC50 was 101 to 500 nM.

Question: `COc1c(F)c(NC(C)C)c2[nH]ncc2c1-c1cn2cc(NC(=O)C3CC3)nc2cn1` [Example 160, N-(6-(6-fluoro-7-(isopropylamino)-5-methoxy-1H-indazol-4-yl)imidazo[1,2-a]pyrazin-2-yl)cyclopropanecarboxamide] was tested. Which IC50 did it give?
Answer: Its IC50 is < 100 nM.

Question: For `Cc1c(F)c(C(C)NC(=O)C(F)(F)F)c2[nH]ncc2c1-c1cn2cc(NC(=O)[C@@H]3C[C@@H]3F)nc2cn1` (stereo partly drawn) [Example 71, (1S,2S)-2-fluoro-N-(6-(6-fluoro-5-methyl-7-(1-(2,2,2-trifluoroacetamido)ethyl)-1H-indazol-4-yl)imidazo[1,2-a]pyrazin-2-yl)cyclopropane-1-carboxamide], which IC50 is on record?
Answer: Its IC50 is < 100 nM.

Question: With `O=CNC(c1c(F)c(C(F)(F)F)c(-c2cn3cc(NC(=O)[C@@H]4C[C@@H]4F)nc3cn2)c2cn[nH]c12)C1CC1` (stereo partly drawn) [Example 115, (1S,2S)-N-(6-(7-(cyclopropyl(formamido)methyl)-6-fluoro-5-(trifluoromethyl)-1H-indazol-4-yl)imidazo[1,2-a]pyrazin-2-yl)-2-fluorocyclopropane-1-carboxamide] as the molecule, how does the IC50 read?
Answer: Its IC50 is < 100 nM.

Question: With `COCC(C)c1c(F)c(C)c(-c2cn3cc(NC(=O)[C@@H]4C[C@@H]4F)nc3cn2)c2cn[nH]c12` (stereo partly drawn) [Example 4, (1S,2S)-2-fluoro-N-(6-(6-fluoro-7-(1-methoxypropan-2-yl)-5-methyl-1H-indazol-4-yl)imidazo[1,2-a]pyrazin-2-yl)cyclopropane-1-carboxamide] as the molecule, how does the IC50 read?
Answer: Its IC50 is < 100 nM.

Question: For `CC(=O)Nc1cn2cc(-c3c(Cl)c(F)c(CN4CCC(C)(O)C4)c4[nH]ncc34)ncc2n1` (centres unmarked) [Example 159, N-(6-(5-chloro-6-fluoro-7-((3-hydroxy-3-methylpyrrolidin-1-yl)methyl)-1H-indazol-4-yl)imidazo[1,2-a]pyrazin-2-yl)acetamide], which IC50 is on record?
Answer: Its IC50 is 501 to 1000 nM.

Question: For `COC(=O)Nc1cn2cc(-c3c(Cl)c(F)c(NC(C)C)c4[nH]ncc34)ncc2n1` [Example 113, methyl (6-(5-chloro-6-fluoro-7-(isopropylamino)-1H-indazol-4-yl)imidazo[1,2-a]pyrazin-2-yl)carbamate], which IC50 is on record?
Answer: Its IC50 is < 100 nM.

Question: Which IC50 does the source give for `CC(=O)Nc1cn2cc(-c3c(Cl)c(F)c(C(O)C4CC4)c4[nH]ncc34)ncc2n1` (centres unmarked) [Example 152, N-(6-(5-chloro-7-(cyclopropyl(hydroxy)methyl)-6-fluoro-1H-indazol-4-yl)imidazo[1,2-a]pyrazin-2-yl)acetamide] here?
Answer: Its IC50 is < 100 nM.

Question: For `CC(C)Nc1c(F)c(Cl)c(-c2cn3cc(NC(=O)C4CCC4)nc3cn2)c2cn[nH]c12` [Example 60, N-(6-(5-chloro-6-fluoro-7-(isopropylamino)-1H-indazol-4-yl)imidazo[1,2-a]pyrazin-2-yl)cyclobutanecarboxamide], which IC50 is on record?
Answer: The IC50 was < 100 nM.

Question: For `CCN(CC)C(=O)[C@H]1C[C@H]1C(=O)Nc1cn2cc(-c3c(Cl)c(F)c(NC(C)C)c4[nH]ncc34)ncc2n1` [Example 26, (1R,2S)-N1-(6-(5-chloro-6-fluoro-7-(isopropylamino)-1H-indazol-4-yl)imidazo[1,2-a]pyrazin-2-yl)-N2,N2-diethylcyclopropane-1,2-dicarboxamide], which IC50 is on record?
Answer: Its IC50 is < 100 nM.

Question: For `CC(NC=O)c1c(F)c(C(F)F)c(-c2cn3cc(NC(=O)[C@@H]4C[C@@H]4F)nc3cn2)c2cn[nH]c12` (stereo partly drawn) [Example 75, (1S,2S)-N-(6-(5-(difluoromethyl)-6-fluoro-7-(1-formamidoethyl)-1H-indazol-4-yl)imidazo[1,2-a]pyrazin-2-yl)-2-fluorocyclopropane-1-carboxamide], which IC50 is on record?
Answer: The IC50 was < 100 nM.

Question: For `CCCCC(=O)Nc1cn2cc(-c3c(Cl)c(F)c(NC(C)C)c4[nH]ncc34)ncc2n1` [Example 117, N-(6-(5-chloro-6-fluoro-7-(isopropylamino)-1H-indazol-4-yl)imidazo[1,2-a]pyrazin-2-yl)pentanamide], which IC50 is on record?
Answer: The IC50 was < 100 nM.

Question: With `CC(=O)N1CC(Oc2c(F)c(Cl)c(-c3cn4cc(NC(=O)[C@@H]5C[C@@H]5F)nc4cn3)c3cn[nH]c23)C1` [Example 142, (1S,2S)-N-(6-(7-((1-acetylazetidin-3-yl)oxy)-5-chloro-6-fluoro-1H-indazol-4-yl)imidazo[1,2-a]pyrazin-2-yl)-2-fluorocyclopropane-1-carboxamide] as the molecule, how does the IC50 read?
Answer: Its IC50 is 101 to 500 nM.

Question: For `Cc1c(F)c(C(C)CO)c2[nH]ncc2c1-c1cn2cc(NC(=O)[C@@H]3C[C@@H]3F)nc2cn1` (stereo partly drawn) [Example 8, (1S,2S)-2-fluoro-N-(6-(6-fluoro-7-(1-hydroxypropan-2-yl)-5-methyl-1H-indazol-4-yl)imidazo[1,2-a]pyrazin-2-yl)cyclopropane-1-carboxamide], which IC50 is on record?
Answer: The IC50 was < 100 nM.

Question: How did the IC50 turn out when `CC(C)Nc1c(F)c(Cl)c(-c2cn3cc(NC(=O)c4ccccc4)nc3cn2)c2cn[nH]c12` [Example 57, N-(6-(5-chloro-6-fluoro-7-(isopropylamino)-1H-indazol-4-yl)imidazo[1,2-a]pyrazin-2-yl)benzamide] was run?
Answer: Its IC50 is < 100 nM.

Question: Which IC50 does the source give for `CCC(=O)Nc1cn2cc(-c3c(Cl)c(F)c(NC(C)C)c4[nH]ncc34)ncc2n1` [Example 61, N-(6-(5-chloro-6-fluoro-7-(isopropylamino)-1H-indazol-4-yl)imidazo[1,2-a]pyrazin-2-yl)propionamide] here?
Answer: Its IC50 is < 100 nM.

Question: For `CC(C)Nc1c(F)c(C(F)F)c(-c2cn3cc(NC(=O)[C@@H]4C[C@@H]4C#N)nc3cn2)c2cn[nH]c12` [Example 154, (1R,2S)-2-cyano-N-(6-(5-(difluoromethyl)-6-fluoro-7-(isopropylamino)-1H-indazol-4-yl)imidazo[1,2-a]pyrazin-2-yl)cyclopropane-1-carboxamide], which IC50 is on record?
Answer: Its IC50 is < 100 nM.

Question: With `CC(=O)Nc1cn2cc(-c3c(Cl)c(F)c([C@H](C)NC(=O)C(F)(F)F)c4[nH]ncc34)ncc2n1` [Example 138, (S)-N-(1-(4-(2-acetamidoimidazo[1,2-a]pyrazin-6-yl)-5-chloro-6-fluoro-1H-indazol-7-yl)ethyl)-2,2,2-trifluoroacetamide] as the molecule, how does the IC50 read?
Answer: The IC50 was < 100 nM.

Question: `CC(C)Nc1c(F)c(Cl)c(-c2cn3cc(NC(=O)CO)nc3cn2)c2cn[nH]c12` [Example 129, N-(6-(5-chloro-6-fluoro-7-(isopropylamino)-1H-indazol-4-yl)imidazo[1,2-a]pyrazin-2-yl)-2-hydroxyacetamide] was tested. Which IC50 did it give?
Answer: The IC50 was < 100 nM.

Question: `CNC(=O)Nc1cn2cc(-c3c(Cl)c(F)c(NC(C)C)c4[nH]ncc34)ncc2n1` [Example 121, 1-(6-(5-chloro-6-fluoro-7-(isopropylamino)-1H-indazol-4-yl)imidazo[1,2-a]pyrazin-2-yl)-3-methylurea] was tested. Which IC50 did it give?
Answer: Its IC50 is 501 to 1000 nM.

Question: How did the IC50 turn out when `CC(=O)Nc1cn2cc(-c3c(Cl)c(F)c(C(C)N4CC(O)C4)c4[nH]ncc34)ncc2n1` (centres unmarked) [Example 161, N-(6-(5-chloro-6-fluoro-7-(1-(3-hydroxyazetidin-1-yl)ethyl)-1H-indazol-4-yl)imidazo[1,2-a]pyrazin-2-yl)acetamide] was run?
Answer: Its IC50 is 501 to 1000 nM.

Question: How did the IC50 turn out when `COc1c(F)c(C(C)O)c2[nH]ncc2c1-c1cn2cc(NC(=O)[C@@H]3C[C@@H]3F)nc2cn1` (stereo partly drawn) [Example 128, (1S,2S)-2-fluoro-N-(6-(6-fluoro-7-(1-hydroxyethyl)-5-methoxy-1H-indazol-4-yl)imidazo[1,2-a]pyrazin-2-yl)cyclopropane-1-carboxamide] was run?
Answer: Its IC50 is < 100 nM.

Question: How did the IC50 turn out when `CCCC(=O)Nc1cn2cc(-c3c(Cl)c(F)c(NC(C)C)c4[nH]ncc34)ncc2n1` [Example 110, N-(6-(5-chloro-6-fluoro-7-(isopropylamino)-1H-indazol-4-yl)imidazo[1,2-a]pyrazin-2-yl)butyramide] was run?
Answer: Its IC50 is < 100 nM.

Question: Which IC50 does the source give for `CC(C)Nc1c(F)c(Cl)c(-c2cn3cc(NC(=O)CN4CCOCC4)nc3cn2)c2cn[nH]c12` [Example 90, N-(6-(5-chloro-6-fluoro-7-(isopropylamino)-1H-indazol-4-yl)imidazo[1,2-a]pyrazin-2-yl)-2-morpholinoacetamide] here?
Answer: Its IC50 is < 100 nM.
